Reference: PMC2932999 (Journal of Medicinal Chemistry, 2010)

Experiments:
[1] = system: wild type D197 NAs (B/Perth and B/Gifu); assay type: biochemical, influenza B virus
[2] = target: recombinant B/Perth/211/2001 wild type D197 neuraminidase heads (influenza B virus B/Perth/211/2001); assay: negative-stain electron microscopy
[3] = target: D197 Gifu NA (B/Gifu/11/2005 wild type neuraminidase) (Influenza B virus, UniProt Q38G88); assay type: biochemical; conditions: read-out: Km for MUNANA
[4] = target: D197 Perth NA (B/Perth/211/2001 wild type neuraminidase) (Influenza B virus, UniProt Q3S340); assay type: biochemical; conditions: read-out: Km for MUNANA
[5] = in vivo; cited from earlier work

Row | Molecule | association of inhibitor with NA [1] | dissociation of inhibitor from NA [1] | also measured
1 | CCC(CC)[C@H](NC(C)=O)[C@@H]1[C@H](O)[C@@H](C(=O)O)C[C@H]1NC(=N)N [compound 3, peramivir] | slow association | slow dissociation | 
2 | recombinant B/Perth/211/2001 wild type D197 neuraminidase heads (enzyme) |  |  | stoichiometry N [2]: 4
3 | CC(=O)N[C@H]1[C@H]([C@H](O)[C@H](O)CO)OC(Oc2ccc3c(C)cc(=O)oc3c2)(C(=O)O)C[C@@H]1O (some centres unmarked) [MUNANA, 4-methylumbelliferyl-N-acetylneuraminic acid] |  |  | Km [3]: 10.5 ± 1.4 µM; Km [4]: 12.4 ± 4.2 µM
4 | CC(=O)N[C@H]1[C@H]([C@H](O)[C@H](O)CO)OC(C(=O)O)=C[C@@H]1NC(=N)N [compound 1, zanamivir] | slow association | slow dissociation | levels delivered to the upper respiratory tract [5]: up to 10 000 nmol/L
